Experimental data as given in patent publication US20040106687A1, “Carotenoids as anti-hypertension agents” (priority 2001, published 2004).

Test system: healthy young individuals
Assay: Double-blind, placebo-controlled crossover study of lycopene consumption, heart rate and blood pressure measured
Format: in vivo, human
Experimental: A double-blind, placebo-controlled crossover study of lycopene consumption in 16 healthy young individuals. Each subject was studied at baseline and then given 15 mg lycopene or placebo for two weeks and re-evaluated. A one-month lycopene administration free washout period followed, another lycopene administration was administered prior to a final evaluation. Each evaluation included measures among other parameters also heart rate and blood pressure. […]

[1] = 16 healthy young individuals, 15 mg lycopene for two weeks

SMILES: CC(C)=CCC/C(C)=C/C=C/C(C)=C/C=C/C(C)=C/C=C/C=C(C)/C=C/C=C(C)/C=C/C=C(\C)CCC=C(C)C [Lycopene, lycopene]
- Diastolic Blood Pressure [1]: 66 ± 2 mmHg
- Systolic Blood Pressure [1]: 114 ± 2 mmHg
- Change in diastolic blood pressure as compared to placebo administration (during lycopene administration, 15 mg for two weeks, p<0.05): significant reduction
